Holding throughout (type): cell-based, human
Assay [1] relates to acidic vesicles (lysosomes and endosomes) in dSH-SY5Y cells. In words: LysoTracker labelling of acidic organelles and colocalisation with dGAE-488. The settings on record: soluble dGAE-488, 24 h; buffer 100±5.23%. The method, then: Cells were plated on 35-mm dishes on a 1.5-mm coverslip (Mattek). Following differentiation, dGAE-488 (5 μM) was added to the cells for 24 h. For labelling lysosomes and endosomes, LysoTracker® red (Life Technologies) was diluted in culture media at a final concentration of 50 nM and incubated for 90 mins before imaging using a Leica SP8 confocal microscope.
All confocal microscopy imaging was carried using a Leica SP8 confocal microscope. The instrument setting used PMT 3 and PMT Trans channels/lasers and images were acquired with a HC PLAPoCs2 63×/1.40 oil-immersion objective lens. Samples were scanned sequentially to prevent spectral bleed through. All images were collected as Z-stacks for all channels using a step size of 0.5 μm. Five to ten Z-stacks were taken for each sample and each experiment was repeated three times or more. […]
Intracellular fluorescent punctate particles were observed within the cytoplasm, close to the nucleus after 24 h of exposure of neurons to soluble dGAE-488. […] There was a significant increase in the intensity of the LysoTracker® fluorescence in cells exposed to soluble dGAE-488 compared to buffer-treated control cells (211.9±9.9%, p<0.0001; FIG. 6Ai, Aii).

For a further assay, the system named is dSH-SY5Y cells. In words: Internalisation of dGAE-488 into cells by confocal microscopy. Here is the method:
Undifferentiated SH-SY5Y human neuroblastoma cells were grown in Dulbecco's Modified Eagle Medium/Nutrient Mixture F-12 (DMEM/F-12) supplemented with 10% Foetal Calf Serum (FCS), 1% Penicillin/Streptomycin (P/S) and 1% L-glutamine. For differentiation, SH-SY5Y cells were plated at a density of 50,000 cells per well in 24-well plates or 300,000 cells per well in 6-well plates. For immunofluorescence, cells were plated onto Menzel-Gläser coverslips (Thermo Scientific). For live-cell imaging, cells were plated on 35-mm dishes on a 1.5-mm coverslip (Mattek). On the first day of differentiation, media was replaced with low-serum culture media (DMEM/F-12 containing 1% FCS, 1% P/S and 1% L-glutamine) containing 10 μM all-trans retinoic acid (RA) (Sigma-Aldrich) and cells were incubated for 48 h. On day 3, this process was repeated with fresh RA and cells were incubated for a further 48 h. On day 5, the cells were washed once in serum-free culture media to remove traces of serum. […] Differentiated cells (dSH-SY5Y) were ready to use for experiments on day 7. […]
(§1) FIJI (https://fiji.sc) imaging processing package (J. Schindelin et al., Nat. Methods, vol. 9, no. 7, pp. 676-682, (2012)) was used for all image analysis. For quantification of fluorescence intensities, images were Z-projected to maximal intensity. […] Area-integrated intensity and mean grey value were measured as well as three selections from around the cell with no fluorescence (background). The corrected total cell fluorescence (CTCF) was then calculated using the equation: […]
For quantification of internalised dGAE-488, a focal plane from the middle of the cell that contained maximal DAPI fluorescence was selected and subjected to analysis.
The uptake of soluble and aggregated dGAE into dSH-SY5Y cells was investigated in order to examine whether aggregation state affects the efficiency of internalisation. The labelled dGAE-488 form was used to permit uptake to be visualised and measured having corrected for total cell fluorescence. […]

Assay [2] has as its system endogenous tau in dSH-SY5Y cells. The assay can be described thus: Immunofluorescence of endogenous tau (AT180, AT8, Tau-1) after dGAE-488 exposure. The settings on record: 1 μM soluble dGAE-488, 24 h. Here is the method: Cell culture medium was aspirated from dSH-SY5Y cells and washed once with PBS. Cells were fixed in 4% (w/v) paraformaldehyde (PFA) in PBS for 15 minutes followed by three washes in PBS. For permeabilization, the cells were incubated in 0.25% (v/v) Triton X-100 in PBS for 10 minutes. Cells were blocked in 2% (w/v) BSA in PBS for 1 h, followed by three washes in PBS. Primary antibodies diluted in 2% (w/v) BSA in PBS and were incubated with the cells for 1 h. The primary antibodies and dilutions used were; AT180 (anti-pT231) (1:250) (Thermo Scientific), AT8 (anti-pS202-T205) (1:500) (Thermo Scientific) and Tau1 (dephosphorylated tau at S195, 198, 199 and 202) (Merck Millipore). Cells were incubated with goat anti-mouse-Alexa Fluor® 594 (1:1000) (Invitrogen™, Thermo Scientific) diluted in 2% (w/v) BSA in PBS for 1 h in the dark. Cells were washed 3 times in PBS between antibody incubations. Cells were mounted onto glass slides using Prolong Gold mounting medium containing 4,6-diamidino-2-phenylindole (DAPI). […]
as §1
Therefore, it was further investigated whether internalised soluble dGAE-488 may be capable of altering the aggregation or phosphorylation state of endogenous tau. […] Cells were examined for colocalisation of internalised dGAE-488 and endogenous tau and the fluorescence intensity of labelled tau in the cell body was quantified in individual cells for each antibody. […] We have previously shown that tau dephosphorylated between amino acids 192-204 detected using Tau-1 antibody, is found in the nucleus in dSH-SY5Y cells (Maina et al., Acta Neuropath. Comm, Vol. 6 No. 70, pp 1-13 (2018)).

Values joined by “and” are separate entries in the source; they are usually repeats but may differ in a detail not shown here. Equal entries are not always repeated.

Take “dGAE-488: dGAE covalently labelled with Alexa Fluor 488”: in assay [1], the “LysoTracker fluorescence intensity as a percentage of buffer-treated cells” value was 211.9±9.89% and 211.9±9.9%. Further, the “488 fluorescence intensity in the cell body (internalisation)” value with dSH-SY5Y cells (aggregated (72 h agitated) dGAE-488, 1 μM, 24 h, mean±SEM, b194 prints AU per cell) was 474.1±95.97 AU and 474±96 AU. Besides, the “incubation time at which internalised protein is detected in cells” value with dSH-SY5Y cells (soluble form, 5 μM dGAE-488, live confocal imaging t=0 h to 14 h) is 2 h. Moreover, the “AT8 (pS202-T205) fluorescence intensity as a percentage of buffer-treated cells” value in assay [2] (buffer 100±3.51%) came out at 270.7±22.5%. In addition, the “AT180 (pT231) fluorescence intensity as a percentage of buffer-treated cells” value in assay [2] (buffer 100±5.2%) came out at 143.5±7.8%. Besides, the “Tau-1 (dephosphorylated tau) fluorescence intensity as a percentage of buffer-treated cells” value in assay [2] (buffer 100±7.3%) amounted to 59.17±3.6%.

Values taken from patent US20230266303A1, “SYSTEM” (GTINVENT LIMITED, priority 2020, published 2023).
